This passage reports GI50 and TGI results from PubChem BioAssay (NCI).

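The compound was tested at five concentrations on cells cultured in 96-well plates, with a 48-hour exposure period. Here, GI50 denotes the concentration required for 50% inhibition of growth. TGI: concentration producing complete growth inhibition.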

Common to all, as to test: inhibition of tumour cell growth, NCI panel, 48 h
Assay [1] deals with COLO 205 colon.
Assay [2] deals with UACC-62 melanoma.
Assay [3] relates to OVCAR-3 ovarian.
Assay [4] deals with SF-268 CNS.
Assay [5] has as its system MOLT-4 leukemia.
Assay [6] deals with HT29 colon.
Assay [7] deals with MALME-3M melanoma.
Assay [8] deals with HCT-15 colon.
The subject of assay [9] is HCT-116 colon.
In assay [10] the test system is K-562 leukemia.

Consider `Cc1sc2nc(NCCc3c[nH]c4ccc(Cl)cc34)[nH]c(=O)c2c1C`, for which the GI50 was 1.74 µM in assay [1]; 2.96 µM in assay [2]; 3.26 µM in [3]; 2.28 µM in assay [4]; 2.22 µM in [5]; 3.06 µM in [6]. In addition, the GI50 is 2.38 µM in [7], 1.52 µM in assay [8], 1.84 µM in assay [9] and 3.03 µM in assay [10]. Besides, the TGI stood at 3.77 µM in assay [1]; 12.7 µM in assay [2]; 12.7 µM in assay [3]; 8.13 µM in assay [4]; 7.27 µM in assay [5]; 10.8 µM in assay [6]. Besides, the TGI in assay [7] was 7.45 µM; in assay [8], 11.2 µM; in assay [9] it was 7.07 µM; in assay [10] it was 10.7 µM.
For `COC(COC(=O)N1CCN(C=O)CC1)C1=C(N2CC2)C(=O)C(C)=C(N2CC2)C1=O` (stereo not given), the TGI came to 0.897 µM in assay [1]; 1.35 µM in [2]; 2.52 µM in assay [3]; 6.45 µM in assay [4]; 14.1 µM in [5]; 0.999 µM in [6]. For the same molecule, the TGI was 1.53 µM in assay [7], 8.1 µM in assay [8], 1.55 µM in assay [9] and greater than 100 µM in [10].
In the case of `CCOC(=O)N1CCN(C(=O)c2ccc(C(F)(F)F)nc2Nc2cc(Cl)ccc2C)CC1`, the GI50 in assay [1] was 18.9 µM; in assay [2] it was 10 µM; in assay [3], 8.85 µM; in [4] it was 74.8 µM; in [5], 6.63 µM; in assay [6] it was 13.2 µM. Moreover, the GI50 in assay [7] was 12 µM; in assay [8], 23.1 µM; in [9] it was 12.3 µM; in assay [10], 6.31 µM. For the same molecule, the TGI is 51.6 µM in [1]; 25.6 µM in [2]; 47.2 µM in [3]; greater than 100 µM in assay [4]; 64.8 µM in assay [5]; 34.8 µM in assay [6]. Moreover, the TGI in assay [7] was 41 µM; in [8], greater than 100 µM; in [9], 30.1 µM; in assay [10], greater than 100 µM.
Regarding `COc1ccccc1NC(=O)C1=C(C)NC(C)=C(C(=O)Nc2ccccc2OC)C1c1ccc([N+](=O)[O-])cc1`, the TGI in assay [1], in [2], in assay [3], in [4], in [5] and in assay [6] was greater than 100 µM each time. The TGI in assay [7], in assay [8], in assay [9] and in assay [10] was greater than 100 µM throughout.
Consider `COC(=O)[C@@H](NC(=O)[C@@H](OC)[C@@H]1Cc2cc3cc(OC4CC(OC5CC(O)C(O)C(C)O5)C(O)C(C)O4)c(C)c(O)c3c(O)c2C(=O)[C@H]1OC1CC(OC2CC(OC3CC(C)(O)C(O)C(C)O3)C(O)C(C)O2)C(O)C(C)O1)C(C)C` (stereo not given in full), for which the GI50 in assay [1] was 0.137 µM; in assay [2], 0.0731 µM; in assay [3], 0.165 µM; in assay [4], 0.172 µM; in assay [5], 0.136 µM; in [6], 0.129 µM. For the same molecule, the GI50 in assay [7] was 0.0763 µM; in assay [8], 0.181 µM; in assay [9] it was 0.0934 µM; in assay [10] it was 0.139 µM. The TGI in assay [1] was greater than 32.5 µM; in assay [2] it was 0.409 µM; in assay [3] it was greater than 32.5 µM; in [4], greater than 32.5 µM; in assay [5], 5.24 µM; in [6] it was greater than 32.5 µM. The TGI in assay [7] was 1.43 µM; in assay [8], greater than 32.5 µM; in assay [9], greater than 32.5 µM; in [10], greater than 32.5 µM.
`Fc1ccc(Nc2cc(-n3nnc4ccccc43)nc3ccccc23)cc1`: the GI50 was 5.74 µM in assay [1]; 36.4 µM in [2]; 28.4 µM in assay [3]; greater than 40.1 µM in [4]; greater than 100 µM in assay [5]; 43.9 µM in assay [6]. Moreover, the GI50 was 23.1 µM in assay [7], greater than 100 µM in [8], 36.4 µM in assay [9] and greater than 100 µM in [10]. The TGI was greater than 100 µM in [1]; greater than 69.2 µM in [2]; greater than 100 µM in assay [3]; greater than 66.3 µM in assay [4]; greater than 100 µM in assay [5]; greater than 100 µM in [6]. In addition, the TGI in assay [7] is greater than 70.6 µM; in assay [8] it was greater than 100 µM; in assay [9] it was greater than 100 µM; in assay [10] it was greater than 100 µM.
As for `Cc1cc(NC(=O)c2ccc(C)c(Nc3nccc(-c4cccnc4)n3)c2)cc(-n2cnc(C)c2)c1`, the GI50 was 2.4 µM in assay [1]; 2.92 µM in [2]; 1.87 µM in assay [3]; 5.46 µM in assay [4]; 15.6 µM in assay [5]; 1.73 µM in [6]. In addition, the GI50 in assay [7] was 2.39 µM; in assay [8], 7.49 µM; in assay [9] it was 0.932 µM; in [10], 0.0915 µM. The TGI was 7.23 µM in assay [1]; 11 µM in [2]; 4.83 µM in assay [3]; 13.4 µM in assay [4]; greater than 50 µM in assay [5]; 5.33 µM in [6]. Moreover, the TGI was 10.6 µM in assay [7], greater than 27 µM in assay [8], 3.28 µM in assay [9] and 4.03 µM in assay [10].
As for `Cc1n(Cc2ccc3ccccc3c2)cc[n+]1Cc1ccc2ccccc2c1`, the GI50 in [1] was 0.369 µM; in [2], 0.843 µM; in [3], 0.521 µM; in assay [4], 1.14 µM; in [5], 1.76 µM; in [6], 0.521 µM. For the same molecule, the GI50 in [7] was 0.627 µM; in [8], 11.3 µM; in assay [9] it was 1.07 µM; in [10] it was 0.478 µM. Besides, the TGI was 1.59 µM in [1]; 2.42 µM in [2]; 2.06 µM in assay [3]; 8.69 µM in assay [4]; 5.61 µM in [5]; 3.02 µM in assay [6]. For the same molecule, the TGI in assay [7] is 2.56 µM; in assay [8], 25.1 µM; in [9], 4.4 µM; in [10], 4.51 µM.
